Test results: US8653046B2, “Controlling transgene expression across the skin” (ETH Zurich, priority 2009, dated 2014)

Columns and labels:
[1] = test system: CHO-K1; assay: Toxicity of flavonoids: CHO-K1 transiently transfected with pSEAP2-Control, SEAP levels after 48 h; conditions: 0, 25, 50 μM, genistein cytotoxic only at 50 μM
Procedure: (A) Toxicity of flavonoids. CHO-K1 are transiently transfected with pSEAP2-Control, and cultivated in medium supplemented with different flavonoids (0, 25, 50 μM). SEAP levels are scored after 48 h.
CHO-K1 are transiently (co-)transfected with either pMG10 (PTtgR1-SEAP-pA) and pMG11 (PSV40-TtgA1-pA), to score regulation performance, or with pSEAP2-Control (PSV40-SEAP-pA), to assess compound-related cytotoxicity, and then cultivated for 48 h in medium containing different concentrations (0, 25, 50 μM) of specific flavonoid type compounds (berberine, butylparaben, genistein, luteolin, β-naphthol, naringenin, phloretin, phloridzin or quercetin) before SEAP production is profiled (FIG. 5A).
Wild-type Chinese hamster ovary cells (CHO-K1, ATCC: CCL-61) and their derivatives are cultivated in standard medium: ChoMaster® HTS (Cell Culture Technologies, Gravesano, Switzerland) supplemented with 5% (v/v) fetal calf serum (FCS, PAN Biotech GmbH, Aidenbach, Germany, Cat. No. 3302, Lot No. P251110) and 1% (v/v) penicillin/streptomycin solution (Sigma, St Louis, Mo., USA, Cat. No. P4458). Human embryonic kidney cells (HEK-293, Mitta B., et al., 2002, Nucleic Acids Res 30(21):e113), African green monkey kidney cells (COS-7, ATCC: CRL-1651), baby hamster kidney cells (BHK-21, ATCC: CCL10), human fibrosarcoma cells (HT-1080, ATCC: CCL-121), the human keratinocyte cell line HaCaT (Boukamp P., et al., 1988, J Cell Biol 106(3):761-771) and mouse fibroblasts (NIH/3T3, ATCC: CRL-1658) are cultured in Dulbecco's modified Eagle's medium (DMEM; Invitrogen, Cat. No. 52100-39) supplemented with 10% FCS (v/v) and 1% (v/v) penicillin/streptomycin solution. Primary human foreskin fibroblasts are cultivated in DMEM supplemented with 20% FCS (v/v) and 1% (v/v) penicillin/streptomycin solution and primary human foreskin keratinocytes are cultured in chemically defined serum-free keratinocyte medium (Invitrogen, Cat. No. 10744019). All cell types are cultivated at 37° C. in a 5% CO2-containing humidified atmosphere. For transient transfection of CHO-K1, 1 μg of total plasmid DNA (for co-transfection an equal amount of each plasmid) is transfected into 50,000 cells per well of a 24-well plate according to an optimized calcium phosphate protocol (Greber D., Fussenegger M., 2007, Biotechnol Bioeng 96(5):821-834). Plasmid DNA is diluted to a total volume of 25 μL 0.5 M CaCl2 solution, which is mixed with 25 μL 2×HBS solution (50 mM HEPES, 280 mM NaCl, 1.5 mM Na2HPO4, pH 7.1). After incubation for 15 min at room temperature, the precipitates are immediately added to the well and centrifuged onto the cells (5 min at 1,200×g) to increase transfection efficiency. After 3 h, the cells are treated with 0.5 mL glycerol solution (ChoMaster® HTS medium containing 15% glycerol) for 60 sec. After washing once with phosphate-buffered saline (PBS, Dulbecco's Phosphate-Buffered Saline; Invitrogen, Cat. No. 21600-0069), cells are cultivated in 0.5 mL standard ChoMaster® HTS medium in the presence or absence of different concentrations of phloretin. For transfection of BHK-21, COS-7 and HEK-293, plasmid DNA-Ca2PO4 precipitate is prepared and applied to the cells as described above. HEK-293 and COS-7 cells are washed once with PBS after 3 h incubation with the DNA-Ca2PO4 precipitate and subsequently cultivated in standard DMEM, while BHK-21 cells are incubated overnight with the precipitates and then cultivated in DMEM medium after being washed once with PBS. […]

[2] = test system: TtgK (TtgR-KRAB); assay: PEACE-ON: SEAP expression of CHO-K1 co-transfected with pMG28 (PSV40-TtgK-pA) and pMG27 (PTtgRON-SEAP-pA); format: cell-based; conditions: phloretin 0-50 μM, 48 h
Procedure: (C) SEAP expression profiles of CHO-K1 transiently transfected with pMG28 (PSV40-TtgK-pA) and pMG27 (PTtgRON-SEAP-pA) and cultivated for 48 h in the presence of different phloretin concentrations (0-50 μM).
By fusing TtgR to the human Kruppel-associated box-protein (KRAB) (Moosmann P., Georgiev O., Thiesen H. J., Hagmann M., Schaffner W., […], Biol Chem 378(7):669-677) a synthetic mammalian transrepressor (TtgK) is created, which is able to bind and inhibit transcription from a promoter (PTtgRON) harboring eight OTtgR-elements located 3′ of a constitutive simian virus 40 promoter (PSV40), in a phloretin-responsive manner (FIGS. 10A and B). Co-transfection of the constitutive TtgK expression vector pMG28 (PSV40-TtgK-pA) and pMG27 (PTtgRON-SEAP-pA) encoding a TtgK-specific PTtgRON-driven SEAP expression unit, results in low-level, basal SEAP expression (2.3±0.26 U/L). […]

[3] = test system: TtgA2 (TtgR-p65); assay: PEACE: SEAP expression after transient co-transfection of pMG10 and pMG18 (PSV40-TtgA2-pA); format: cell-based, Pseudomonas putida DOT-T1E; conditions: 48 h
Source text: Three different transactivators are designed, harboring either the VP16 (TtgA1; pMG11, TtgR-VP16) (Triezenberg S. J. et al., loc. cit.), the p65 (TtgA2; pMG18, TtgR-p65) (Urlinger S., et al., 2000, Gene 247(1-2):103-110) or the human E2F4 (TtgA3; pMG19, TtgR-E2F4) (Akagi K., Kanai M., Saya H., Kozu T., Berns A., 2001, Nucleic Acids Res 29(4):e23) transactivation domains. pMG11, pMG18 or pMG19 are co-transfected with pMG10 (PTtgR1-SEAP-pA) into CHO-K1, HEK-293 as well as primary human fibroblasts and keratinocytes, and SEAP expression is profiled after 48 h of cultivation in the presence or absence of 50 μM phloretin. […] All transactivators mediate similar basal expression levels when phloretin is […] in the medium, but due to their cell-type specificity and graded maximum transcription-initiation capacities, the three transactivators offer a selection of defined expression windows.

SMILES: O=C(CCc1ccc(O)cc1)c1c(O)cc(O)cc1O [phloretin, 3-[4-hydroxyphenyl]-1-[2,4,6-trihydroxyphenyl]-1-propanone]
- compound-related cytotoxicity / cell viability [1]: do not reduce cell viability
- SEAP expression dose response (PEACE-ON) [2]: dose-dependent induction of SEAP expression
- SEAP Production ([3]; CHO-K1, phloretin 50 μM): 0.8 ± 0.05 U/L
- SEAP Production ([3]; HEK-293, phloretin 50 μM): 1.9 ± 0.1 U/L
- SEAP Production ([3]; HaCaT, phloretin 50 μM): 0.5 ± 0.05 U/L
- SEAP Production ([3]; human primary fibroblasts, phloretin 50 μM): 0.2 ± 0.02 U/L
- SEAP Production ([3]; human primary keratinocytes, phloretin 50 μM): 0.3 ± 0.02 U/L
